Reference: US9765075B2, “Substituted bridged urea analogs as sirtuin modulators” (GLAXOSMITHKLINE LLC, priority 2013, dated 2017)
Numbering of substitutions follows the chain as printed.

Experiments:
Test in all cases: SIRT1 activation dose-response, OAcADPr assay with Ac-p53(W5) substrate
Type in all cases: biochemical
full-length hSIRT1 Q222A = biological target: T1, full-length hSIRT1 Q222A (Homo sapiens, UniProt Q96EB6, Q222A); conditions: for EC50: hSIRT1 Q222A, activation dose-response, Ac-p53(W5) substrate
T1 construct: The following point mutants of full-length hSIRT1 were generated; made in house
T1 sequence (Q96EB6 1-747 Q222A): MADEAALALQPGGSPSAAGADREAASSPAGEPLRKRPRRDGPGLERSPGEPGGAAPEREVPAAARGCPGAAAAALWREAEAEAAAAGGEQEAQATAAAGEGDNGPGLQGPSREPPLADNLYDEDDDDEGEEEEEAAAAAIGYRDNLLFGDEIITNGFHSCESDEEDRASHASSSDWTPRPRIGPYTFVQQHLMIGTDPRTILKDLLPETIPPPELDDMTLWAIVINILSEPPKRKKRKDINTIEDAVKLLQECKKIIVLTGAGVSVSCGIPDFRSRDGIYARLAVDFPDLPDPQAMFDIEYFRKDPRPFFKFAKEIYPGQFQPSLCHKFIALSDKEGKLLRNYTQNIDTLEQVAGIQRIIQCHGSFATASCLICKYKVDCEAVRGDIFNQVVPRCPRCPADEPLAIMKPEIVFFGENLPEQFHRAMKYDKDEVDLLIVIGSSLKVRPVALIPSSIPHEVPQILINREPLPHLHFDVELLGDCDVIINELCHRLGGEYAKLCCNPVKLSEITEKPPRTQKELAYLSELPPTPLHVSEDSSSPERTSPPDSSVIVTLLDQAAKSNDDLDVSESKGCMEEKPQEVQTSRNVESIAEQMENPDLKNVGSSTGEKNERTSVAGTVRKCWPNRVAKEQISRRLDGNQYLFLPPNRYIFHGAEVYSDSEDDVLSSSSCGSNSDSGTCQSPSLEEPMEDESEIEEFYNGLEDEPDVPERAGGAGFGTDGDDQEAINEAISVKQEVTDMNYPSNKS
Description: (§1) SIRT1 activation and inhibition assays were run in reaction buffer with 0.05% BSA at 25° C. and analyzed using the OAcADPr assay. Enzyme and compound were pre-incubated for 20 minutes before addition of substrates. […] The dose-dependence of five compounds was tested and the fold-activation data were described by Eq. 1
(§2) [formula] where vx/v0 is the ratio of the reaction rate in the presence (vx) versus absence (v0) of activator (X), RVmax is the relative velocity at infinite activator concentration, EC50 is the concentration of activator required to produce one-half RVmax and b is the minimum value of vx/v0.

full-length hSIRT1 E230Q = biological target: T2, full-length hSIRT1 E230Q (Homo sapiens, UniProt Q96EB6, E230Q); conditions: for EC50: hSIRT1 E230Q, activation dose-response, Ac-p53(W5) substrate
T2 construct: His6 (C); made in house
T2 sequence (Q96EB6 1-747 E230Q): T1 sequence (Q96EB6 1-747 Q222A) with A222Q, E230Q
Description: as §1, §2

full-length hSIRT1 WT = biological target: T3, full-length hSIRT1 WT (Homo sapiens, UniProt Q96EB6); conditions: for EC50: hSIRT1 WT, activation dose-response, Ac-p53(W5) substrate
T3 construct: Full-length human SIRT1 (hSIRT1) proteins were expressed with a C-terminal His6 tag; His6 (C); made in house
T3 sequence (Q96EB6 1-747): T1 sequence (Q96EB6 1-747 Q222A) with A222Q
Description: as §1, §2

SMILES | EC50 fold shift (mutant EC50/wild-type EC50) (full-length hSIRT1 Q222A) | RVmax fold shift = (wild-type RVmax−1)/(mutant RVmax−1) (full-length hSIRT1 Q222A) | EC50 (full-length hSIRT1 Q222A) | EC50 fold shift (mutant EC50/wild-type EC50) (full-length hSIRT1 E230Q) | RVmax fold shift = (wild-type RVmax−1)/(mutant RVmax−1) (full-length hSIRT1 E230Q) | EC50 (full-length hSIRT1 E230Q) | EC50 fold shift (mutant EC50/wild-type EC50) (full-length hSIRT1 WT) | RVmax fold shift = (wild-type RVmax−1)/(mutant RVmax−1) (full-length hSIRT1 WT) | EC50 (full-length hSIRT1 WT)
Cc1cnc2c(NC(=O)N3c4nc(-c5cccc(C(F)(F)F)c5)ccc4N4CC[C@H]3C4)cccc2n1 [Example 8] | 1.07 | 1.22 | 510 nM | 1.21 | 3.07 | 580 nM | 1.00 | 1.00 | 480 nM
O=C(Nc1ccccn1)N1c2nc(-c3cccc(C(F)(F)F)c3)ccc2N2CC[C@H]1C2 [Example 7] | 0.91 | 0.98 | 2010 nM | 1.53 | 3.93 | 3360 nM | 1.00 | 1.00 | 2200 nM
